Measured values reported in ChEMBL document CHEMBL2396545, “Quinoline drug-heme interactions and implications for antimalarial cytostatic versus cytocidal activities” (J Med Chem, 2013).

Legend:
[1] = Inhibition of hemozoin formation in 9.7 M acetate buffer at pH 4.8 at 60 degC after 2 hrs by microtiter-based high-throughput assay; assay type: functional
[2] = Inhibition of hemozoin formation in 12.9 M acetate buffer at pH 4.5 at 60 degC after 1 hr by microtiter-based high-throughput assay; assay type: functional
[3] = Inhibition of hemozoin formation in 8 M acetate buffer at pH 5 after 18 hrs by microtiter plate-based high-throughput assay; assay type: functional
[4] = Inhibition of hemozoin formation in 0.5 M acetate buffer at pH 4.8 after 12 hrs by tube-based high-throughput assay; assay type: functional
[5] = Inhibition of hemozoin formation in acetonitrile trophozoite extract by microtiter plate-based high-throughput assay; assay type: functional
[6] = Inhibition of hemozoin formation by microtiter plate-based high-throughput assay; assay type: functional
[7] = Inhibition of hemozoin formation in parasite digestive vacuole extract by microtiter plate-based high-throughput assay; assay type: functional
[8] = Inhibition of hemozoin formation in 0.5 M acetate buffer at pH 4.8 after 12 hrs by microtiter plate-based high-throughput assay in presence of trophozoite lysate; assay type: functional
[9] = Inhibition of hemozoin formation in 0.5 M acetate buffer at pH 4.8 after 24 hrs by microtiter plate-based high-throughput assay; assay type: functional
[10] = Inhibition of hemozoin formation in 0.5 M acetate buffer at pH 4.8 after 16 hrs by tube-based high-throughput assay in presence of 0.002 mg/mL phosphatidylcholine; assay type: functional
[11] = Inhibition of hemozoin formation in 0.1 M acetate buffer at pH 4.8 after 12 hrs by tube-based high-throughput assay in presence of Plasmodium yoelii homogenate; assay type: functional, tissue-based

OC(c1cc(C(F)(F)F)nc2c(C(F)(F)F)cccc12)C1CCCCN1 (configuration not stated) [MEFLOQUINE]
IC50 [1]: 476 µM | IC50 [2]: 2.9 µM | IC50 [3]: 6.18 µM | IC50 [4]: 46.9 µM | IC50 [5]: 140 µM | IC50 [6]: 120 µM | IC50 [7]: 80 µM | IC50 [8]: 200 µM | IC50 [9]: 120 µM

C=C[C@H]1CN2CC[C@H]1C[C@H]2[C@H](O)c1ccnc2ccc(OC)cc12 [QUININE]
IC50 [10]: 201 µM | IC50 [2]: 3.5 µM | IC50 [11]: 41.6 µM | IC50 [4]: 64.8 µM | IC50 [5]: 78 µM | IC50 [6]: 160 µM | IC50 [7]: 100 µM | IC50 [8]: 430 µM | IC50 [9]: 160 µM

CCN(CC)CCCC(C)Nc1ccnc2cc(Cl)ccc12 (configuration not stated) [CHLOROQUINE]
IC50 [1]: 374 µM | IC50 [10]: 117 µM | IC50 [2]: 1.91 µM | IC50 [11]: 43.8 µM | IC50 [3]: 1.63 µM | IC50 [4]: 24.4 µM | IC50 [6]: 45 µM | IC50 [7]: 50 µM | IC50 [8]: 400 µM | IC50 [9]: 45 µM

CCN(CC)Cc1cc(Nc2ccnc3cc(Cl)ccc23)ccc1O
IC50 [1]: 67 µM | IC50 [2]: 1.45 µM | IC50 [3]: 0.85 µM | IC50 [4]: 15.1 µM | IC50 [5]: 73 µM | IC50 [6]: 60 µM | IC50 [7]: 60 µM | IC50 [8]: 203 µM | IC50 [9]: 60 µM
